Test results reported in patent US10597388B2, “Pyridazinone herbicides” (FMC CORPORATION, priority 2014, dated 2020).

Columns and labels:
Assay in all cases: Test D controlled growth environment herbicide test, pre- and postemergence
Format in all cases: in vivo
kochia (Kochia scoparia) = system: kochia (Kochia scoparia)
Procedure, shortened: (§1)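 Species sown in silt loam and sprayed preemergence, or grown in peat-based medium to 2–18 cm (1- to 4-leaf stage) and sprayed postemergence, with compounds in non-phytotoxic solvent plus surfactant. Visual injury scored versus controls after 14–21 d in a controlled environment, 0 (no effect) to 100 (complete control).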

[1] = system: windgrass (Apera spica-venti)
Procedure, shortened: as §1

[2] = system: chickweed (common chickweed, Stellaria media)
Procedure, shortened: as §1

[3] = system: radish, wild (wild radish, Raphanus raphanistrum)
Procedure, shortened: as §1

[4] = system: field violet (Viola arvensis)
Procedure, shortened: as §1

[5] = system: wheat, winter (winter wheat, Triticum aestivum)
Procedure, shortened: as §1

[6] = system: deadnettle (henbit deadnettle, Lamium amplexicaule)
Procedure, shortened: as §1

[7] = system: speedwell (bird's-eye speedwell, Veronica persica)
Procedure, shortened: as §1

[8] = system: chamomile (scentless chamomile, Matricaria inodora)
Procedure, shortened: as §1

[9] = system: bromegrass, downy (downy bromegrass, Bromus tectorum)
Procedure, shortened: as §1

[10] = system: blackgrass (Alopecurus myosuroides)
Procedure, shortened: as §1

[11] = system: ryegrass, Italian (Italian ryegrass, Lolium multiflorum)
Procedure, shortened: as §1

[12] = system: lambsquarters (Chenopodium album)
Procedure, shortened: as §1

[13] = Postemergence, 31 g ai/ha, scale 0 to 100 (0 no effect, 100 complete control)
[14] = Postemergence, 125 g ai/ha, visual rating on scale 0 (no effect) to 100 (complete control), 14 to 21 d
[15] = Postemergence, 250 g ai/ha, scale 0 to 100 (0 no effect, 100 complete control)
[16] = Preemergence, 62 g ai/ha, scale 0 to 100 (0 no effect, 100 complete control)
[17] = Preemergence, 125 g ai/ha, scale 0 to 100 (0 no effect, 100 complete control)
[18] = Preemergence, 250 g ai/ha, scale 0 to 100, 0 no effect, 100 complete control
[19] = postemergence, 62 g ai/ha, scale 0 to 100, 0 no effect, 100 complete control

SMILES: CCc1sc2c(C)cc(C)cc2c1-c1c(O)c(C)nn(C)c1=O [Compound 57]
- Kochia plant response rating (kochia (Kochia scoparia); [13]): 40
- Plant response rating, Kochia (kochia (Kochia scoparia); [14]): 65
- Plant response rating, Kochia (kochia (Kochia scoparia); [15]): 75
- Plant response rating (scale of 0 to 100), Kochia (kochia (Kochia scoparia); Preemergence, 31 g ai/ha): 10
- Plant response rating, Kochia (kochia (Kochia scoparia); [16]): 10
- Plant response rating, Kochia (kochia (Kochia scoparia); [17]): 35
- Plant response rating, Kochia (kochia (Kochia scoparia); [18]): 100
- Plant response rating, Kochia (kochia (Kochia scoparia); [19]): 55
- Windgrass plant response rating [1, 13]: 10
- Plant response rating, Windgrass [1, 14]: 10
- Plant response rating, Windgrass [1, 15]: 15
- Plant response rating (scale of 0 to 100), Windgrass ([1]; Preemergence, 31 g ai/ha): 20
- Plant response rating, Windgrass [1, 16]: 35
- Plant response rating, Windgrass [1, 17]: 65
- Plant response rating, Windgrass [1, 18]: 80
- Plant response rating, Windgrass [1, 19]: 10
- Chickweed plant response rating [2, 13]: 100
- Plant response rating, Chickweed [2, 14]: 100
- Plant response rating, Chickweed [2, 15]: 100
- Plant response rating (scale of 0 to 100), Chickweed ([2]; Preemergence, 31 g ai/ha): 100
- Plant response rating, Chickweed [2, 16]: 100
- Plant response rating, Chickweed [2, 17]: 100
- Plant response rating, Chickweed [2, 18]: 100
- Plant response rating, Chickweed [2, 19]: 100
- Radish, Wild plant response rating [3, 13]: 40
- Plant response rating, Radish, Wild [3, 14]: 100
- Plant response rating, Radish, Wild [3, 15]: 90
- Plant response rating (scale of 0 to 100), Radish, Wild ([3]; Preemergence, 31 g ai/ha): 0
- Plant response rating, Radish, Wild [3, 16]: 10
- Plant response rating, Radish, Wild [3, 17]: 25
- Plant response rating, Radish, Wild [3, 18]: 100
- Plant response rating, Radish, Wild [3, 19]: 100
- Field Violet plant response rating [4, 13]: 80
- Plant response rating, Field Violet [4, 14]: 75
- Plant response rating, Field Violet [4, 15]: 85
- Plant response rating (scale of 0 to 100), Field Violet ([4]; Preemergence, 31 g ai/ha): 95
- Plant response rating, Field Violet [4, 16]: 100
- Plant response rating, Field Violet [4, 17]: 100
- Plant response rating, Field Violet [4, 18]: 100
- Plant response rating, Field Violet [4, 19]: 70
- Wheat, Winter plant response rating [5, 13]: 5
- Plant response rating, Wheat, Winter [5, 14]: 10
- Plant response rating, Wheat, Winter [5, 15]: 15
- Plant response rating (scale of 0 to 100), Wheat, Winter ([5]; Preemergence, 31 g ai/ha): 5
- Plant response rating, Wheat, Winter [5, 16]: 5
- Plant response rating, Wheat, Winter [5, 17]: 5
- Plant response rating, Wheat, Winter [5, 18]: 10
- Plant response rating, Wheat, Winter [5, 19]: 10
- Deadnettle plant response rating [6, 13]: 70
- Plant response rating, Deadnettle [6, 14]: 85
- Plant response rating, Deadnettle [6, 15]: 100
- Plant response rating (scale of 0 to 100), Deadnettle ([6]; Preemergence, 31 g ai/ha): 0
- Plant response rating, Deadnettle [6, 16]: 20
- Plant response rating, Deadnettle [6, 17]: 25
- Plant response rating, Deadnettle [6, 18]: 45
- Plant response rating, Deadnettle [6, 19]: 90
- Speedwell plant response rating [7, 13]: 100
- Plant response rating, Speedwell [7, 14]: 25
- Plant response rating, Speedwell [7, 15]: 100
- Plant response rating (scale of 0 to 100), Speedwell ([7]; Preemergence, 31 g ai/ha): 25
- Plant response rating, Speedwell [7, 16]: 90
- Plant response rating, Speedwell [7, 17]: 100
- Plant response rating, Speedwell [7, 18]: 100
- Plant response rating, Speedwell [7, 19]: 15
- Chamomile plant response rating [8, 13]: 100
- Plant response rating, Chamomile [8, 14]: 100
- Plant response rating, Chamomile [8, 15]: 100
- Plant response rating, Chamomile [8, 19]: 100
- Bromegrass, Downy plant response rating [9, 13]: 15
- Plant response rating, Bromegrass, Downy [9, 14]: 25
- Plant response rating, Bromegrass, Downy [9, 15]: 35
- Plant response rating (scale of 0 to 100), Bromegrass, Downy ([9]; Preemergence, 31 g ai/ha): 0
- Plant response rating, Bromegrass, Downy [9, 16]: 5
- Plant response rating, Bromegrass, Downy [9, 17]: 25
- Plant response rating, Bromegrass, Downy [9, 18]: 30
- Plant response rating, Bromegrass, Downy [9, 19]: 20
- Blackgrass plant response rating [10, 13]: 15
- Plant response rating, Blackgrass [10, 14]: 55
- Plant response rating, Blackgrass [10, 15]: 75
- Plant response rating (scale of 0 to 100), Blackgrass ([10]; Preemergence, 31 g ai/ha): 25
- Plant response rating, Blackgrass [10, 16]: 35
- Plant response rating, Blackgrass [10, 17]: 70
- Plant response rating, Blackgrass [10, 18]: 80
- Plant response rating, Blackgrass [10, 19]: 45
- Ryegrass, Italian plant response rating [11, 13]: 25
- Plant response rating, Ryegrass, Italian [11, 14]: 75
- Plant response rating, Ryegrass, Italian [11, 15]: 85
- Plant response rating (scale of 0 to 100), Ryegrass, Italian ([11]; Preemergence, 31 g ai/ha): 55
- Plant response rating, Ryegrass, Italian [11, 16]: 75
- Plant response rating, Ryegrass, Italian [11, 17]: 80
- Plant response rating, Ryegrass, Italian [11, 18]: 95
- Plant response rating, Ryegrass, Italian [11, 19]: 50
- Lambsquarters plant response rating [12, 13]: 75
- Plant response rating, Lambsquarters [12, 14]: 75
- Plant response rating, Lambsquarters [12, 15]: 85
- Plant response rating (scale of 0 to 100), Lambsquarters ([12]; Preemergence, 31 g ai/ha): 100
- Plant response rating, Lambsquarters [12, 16]: 100
- Plant response rating, Lambsquarters [12, 17]: 100
- Plant response rating, Lambsquarters [12, 18]: 100
- Plant response rating, Lambsquarters [12, 19]: 75
